This note sets out measurements from PubChem BioAssay AID330 (DTP/NCI, 2004).

The assay deals with P388 leukemia ip, CD2F1 mice, survival T/C. Nature of the assay: NCI In Vivo Anticancer Drug Screen. Data for tumor model P388 Leukemia (intraperitoneal) in CD2F1 (CDF1) mice. Conditions: endpoint: median survival time, higher = longer survival. An outline of the steps: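 Mice carrying the transplanted tumor received test compound or vehicle. Survival was recorded in each group, and the value is the treated-group measurement divided by that of the vehicle-treated control group.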

Setting [1] is: dose: 50.0 mg/kg/injection, schedule: Q01DX005 (ip), vehicle: saline with Tween-80.
The mark [2] stands for this setting: dose: 100.0 mg/kg/injection, schedule: Q01DX005 (ip), vehicle: saline with Tween-80.
The mark [3] stands for this setting: dose: 200.0 mg/kg/injection, schedule: Q01DX005 (ip), vehicle: saline with Tween-80.
Where [4] appears, read: dose: 50.0 mg/kg/injection, schedule: Q01DX009 (ip), vehicle: saline with Tween-80.
[5] abbreviates: dose: 100.0 mg/kg/injection, schedule: Q01DX009 (ip), vehicle: saline with Tween-80.
Where [6] appears, read: dose: 200.0 mg/kg/injection, schedule: Q01DX009 (ip), vehicle: saline with Tween-80.
Setting [7] is: dose: 50.0 mg/kg/injection, schedule: Q01DX009 (ip), vehicle: Klucel (hydroxypropylcellulose) (HPC).
Where [8] appears, read: dose: 100.0 mg/kg/injection, schedule: Q01DX009 (ip), vehicle: Klucel (hydroxypropylcellulose) (HPC).
Setting [9] is: dose: 200.0 mg/kg/injection, schedule: Q01DX009 (ip), vehicle: Klucel (hydroxypropylcellulose) (HPC).
Where [10] appears, read: dose: 50.0 mg/kg/injection, schedule: Q01DX005 (ip), vehicle: Klucel (hydroxypropylcellulose) (HPC).
The mark [11] stands for this setting: dose: 100.0 mg/kg/injection, schedule: Q01DX005 (ip), vehicle: Klucel (hydroxypropylcellulose) (HPC).
The mark [12] stands for this setting: dose: 200.0 mg/kg/injection, schedule: Q01DX005 (ip), vehicle: Klucel (hydroxypropylcellulose) (HPC).

“And” between values parts separate entries of the source, which are not always exact repeats. Equal entries are not always repeated. Inconclusive results and toxic doses are left out.

Consider `O=C1CN(C(=O)Nc2ccccc2)c2ccccc2N1`, for which the T/C is 92 % of control under setting [1], 93 % of control under setting [2] and 90 % of control under setting [3].

`CCCCCCCCCCCCCCCCCSCc1ccc(Nc2ccccc2)cc1`: the T/C is 108 % of control (dose: 25.0 mg/kg/injection, schedule: Q01DX009 (ip), vehicle: saline with Tween-80); 116 % of control (dose: 50.0 mg/kg/injection, schedule: Q01DX009 (ip), vehicle: other); 103 % of control and 108 % of control under setting [4]; 116 % of control (dose: 100.0 mg/kg/injection, schedule: Q01DX009 (ip), vehicle: other); 103 % of control under setting [5]; 118 % of control (dose: 200.0 mg/kg/injection, schedule: Q01DX009 (ip), vehicle: other). Under setting [6], the T/C was 116 % of control and 93 % of control.

For `CNC(=O)c1ccccc1CC1(O)CCCc2ccccc21` (configuration not stated), the T/C under setting [4] is 101 % of control, the T/C under setting [5] is 96 % of control and the T/C under setting [6] was 96 % of control.

Consider `CCCCCCCCCCCCCCCC(=O)OCC(=O)OC`, for which the T/C is 101 % of control under setting [7], 93 % of control under setting [8] and 93 % of control under setting [9].

On to `CC(C)(CO)NCCNC(C)(C)CO`, for which the T/C under setting [1] is 98 % of control, the T/C under setting [2] is 90 % of control and the T/C under setting [3] is 100 % of control.

Consider `Nc1ccc(N)c2c1C(=O)c1c(N)ccc(N)c1C2=O`, for which the T/C is 102 % of control under setting [10], 100 % of control under setting [11] and 101 % of control under setting [12].

With `Cn1c(=NCCc2ccccc2)oc2ccc(Cl)cc21`, the T/C under setting [1] is 103 % of control, the T/C under setting [2] was 100 % of control and the T/C under setting [3] was 100 % of control.

With `CCCCOc1ccc(OCc2ccc(C)cc2)cc1`, the T/C was 114 % of control under setting [4], 114 % of control under setting [5] and 91 % of control under setting [6].

`Cc1cc(=O)n(C)c2ccc([N+](=O)[O-])cc12`: the T/C runs as follows: under setting [7], 106 % of control; under setting [8], 108 % of control; under setting [9], 108 % of control.

As to `CCN(CC)CCCCCCNc1cc(OC)cc2cccnc12`, the T/C (dose: 12.5 mg/kg/injection, schedule: Q01DX009 (ip), vehicle: saline) was 86 % of control; the T/C (dose: 25.0 mg/kg/injection, schedule: Q01DX009 (ip), vehicle: saline) is 96 % of control; the T/C (dose: 50.0 mg/kg/injection, schedule: Q01DX009 (ip), vehicle: saline) was 90 % of control.

Consider `CC1C(c2ccccc2)OC(c2ccccc2)N1C` (configuration not stated), for which the T/C was 93 % of control (dose: 12.5 mg/kg/injection, schedule: Q01DX005 (ip), vehicle: water); 93 % of control (dose: 25.0 mg/kg/injection, schedule: Q01DX005 (ip), vehicle: water); 98 % of control (dose: 50.0 mg/kg/injection, schedule: Q01DX005 (ip), vehicle: water); 93 % of control (dose: 100.0 mg/kg/injection, schedule: Q01DX005 (ip), vehicle: water); 98 % of control (dose: 200.0 mg/kg/injection, schedule: Q01DX005 (ip), vehicle: water).

For `NC(CSCc1ccccc1)C(=O)Nc1ccc([N+](=O)[O-])cc1` (configuration not stated), the T/C under setting [10] is 110 % of control, the T/C under setting [11] was 101 % of control and the T/C under setting [12] was 104 % of control.

`O=NN(CCCl)C(=O)NC1CCC(=O)NC1=O` (configuration not stated): the T/C (dose: 0.5 mg/kg/injection, schedule: Q04DX003 (ip), vehicle: saline) was 122 % of control; the T/C (dose: 1.0 mg/kg/injection, schedule: Q04DX003 (ip), vehicle: saline) is 154 % of control; the T/C (dose: 2.0 mg/kg/injection, schedule: Q01DX005 (ip), vehicle: saline + alcohol) is 214 % of control; the T/C (dose: 2.0 mg/kg/injection, schedule: Q01DX005 (iv), vehicle: saline + alcohol) was 117 % of control; the T/C (dose: 2.0 mg/kg/injection, schedule: Q04DX003 (ip), vehicle: saline) was 195 % of control; the T/C (dose: 3.13 mg/kg/injection, schedule: Q01DX009 (ip), vehicle: saline with Tween-80) is 118 % of control. For the same compound, the T/C (dose: 4.0 mg/kg/injection, schedule: Q01DX001 (ip), vehicle: saline + alcohol) is 172 % of control; the T/C (dose: 4.0 mg/kg/injection, schedule: Q01DX005 (ip), vehicle: saline + alcohol) is 315 % of control; the T/C (dose: 4.0 mg/kg/injection, schedule: Q01DX005 (iv), vehicle: saline + alcohol) was 205 % of control; the T/C (dose: 4.0 mg/kg/injection, schedule: Q01DX005 (oral), vehicle: saline + alcohol) was 207 % of control; the T/C (dose: 4.0 mg/kg/injection, schedule: Q04DX003 (ip), vehicle: saline with Tween-80) was 272 % of control; the T/C (dose: 4.0 mg/kg/injection, schedule: Q04DX003 (ip), vehicle: saline) is 263 % of control. Further, the T/C is, setting by setting: (dose: 6.0 mg/kg/injection, schedule: Q04DX003 (ip), vehicle: saline with Tween-80) 272 % of control; (dose: 6.25 mg/kg/injection, schedule: Q01DX009 (ip), vehicle: saline with Tween-80) 109 % of control; (dose: 8.0 mg/kg/injection, schedule: Q01DX001 (ip), vehicle: saline + alcohol) 232 % of control; (dose: 8.0 mg/kg/injection, schedule: Q01DX001 (iv), vehicle: saline + alcohol) 158 % of control; (dose: 8.0 mg/kg/injection, schedule: Q01DX005 (iv), vehicle: saline + alcohol) 252 % of control; (dose: 8.0 mg/kg/injection, schedule: Q01DX005 (oral), vehicle: saline + alcohol) 315 % of control. The T/C (dose: 9.0 mg/kg/injection, schedule: Q04DX003 (ip), vehicle: saline with Tween-80) was 272 % of control; the T/C (dose: 12.5 mg/kg/injection, schedule: Q04DX003 (ip), vehicle: saline with Tween-80) is 87 % of control; the T/C (dose: 13.0 mg/kg/injection, schedule: Q01DX001 (ip), vehicle: saline with Tween-80) was 517 % of control; the T/C (dose: 16.0 mg/kg/injection, schedule: Q01DX001 (ip), vehicle: saline + alcohol) is 312 % of control; the T/C (dose: 16.0 mg/kg/injection, schedule: Q01DX001 (iv), vehicle: saline + alcohol) was 203 % of control; the T/C (dose: 16.0 mg/kg/injection, schedule: Q01DX001 (oral), vehicle: saline + alcohol) is 187 % of control. The T/C (dose: 16.0 mg/kg/injection, schedule: Q01DX005 (oral), vehicle: saline + alcohol) is 119 % of control.

Turning to `COc1ccc(C2=C(Cl)C(=O)N(c3ccccn3)C(=O)C2(Cl)Cl)cc1`, the T/C was 98 % of control (dose: 100.0 mg/kg/injection, schedule: Q04DX003 (ip), vehicle: Klucel (hydroxypropylcellulose) (HPC)); 106 % of control (dose: 200.0 mg/kg/injection, schedule: Q04DX003 (ip), vehicle: Klucel (hydroxypropylcellulose) (HPC)); 100 % of control (dose: 400.0 mg/kg/injection, schedule: Q04DX003 (ip), vehicle: Klucel (hydroxypropylcellulose) (HPC)).

In the case of `CC1(C)CC(=O)C=C(NCCCCCCNC2=CC(=O)CC(C)(C)C2)C1`, the T/C was 113 % of control under setting [7], 103 % of control under setting [8] and 95 % of control under setting [9].

For `O=C1CSC(c2ccc(Cl)cc2)N1c1nncs1` (configuration not stated), the T/C was 101 % of control (dose: 60.0 mg/kg/injection, schedule: Q01DX005 (ip), vehicle: saline with Tween-80); 102 % of control (dose: 120.0 mg/kg/injection, schedule: Q01DX005 (ip), vehicle: saline with Tween-80); 108 % of control (dose: 240.0 mg/kg/injection, schedule: Q01DX005 (ip), vehicle: saline with Tween-80).

Take `CC(C)(C)N=C(CCNC1CCCCC1)Nc1cccc(C(F)(F)F)c1`: the T/C runs as follows: (dose: 25.0 mg/kg/injection, schedule: Q01DX001 (ip), vehicle: saline) 98 % of control; (dose: 50.0 mg/kg/injection, schedule: Q01DX001 (ip), vehicle: saline) 101 % of control; (dose: 100.0 mg/kg/injection, schedule: Q01DX001 (ip), vehicle: saline with Tween-80) 101 % of control; (dose: 100.0 mg/kg/injection, schedule: Q01DX001 (ip), vehicle: saline) 113 % of control.

In the case of `CCOC1=CC(=O)/C(=C/O[Si](C)(C)C)CC1`, the T/C is, setting by setting: under setting [4], 103 % of control; under setting [5], 99 % of control.
